This assay has as its system HCT116. Particulars: 72 h. In short, it runs like this: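 HCT116 cells were seeded at 250 per well in 1536-well plates with 5 h allowed for attachment. CellTiter-Glo luminescence was normalized against vehicle (0%) and positive control (-100%) before pattern correction. The IC50 and maximal efficacy figures derive from four-parameter Hill fits.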

Structures can show the parent of a compound that is named as a salt.

For the compound `CCNC(=O)NCCCOc1cccc(CN2CCCCC2)c1` [Dalcotidine], the IC50 cell viability (ICRF193 0 nM) was greater than 45.8 µM and the IC50 cell viability (ICRF193 200 nM) was greater than 45.8 µM.

Consider `C[C@]12CC[C@@H]3c4ccc(O)cc4C[C@@H](CCCCCCCCC[S+]([O-])CCCC(F)(F)C(F)(F)F)[C@H]3[C@@H]1CC[C@@H]2O` (some centres undefined) [Fulvestrant], for which the IC50 cell viability is greater than 45.8 µM (ICRF193 0 nM) and greater than 45.8 µM (ICRF193 200 nM).

Take `CCC(CC)(CNC(=O)CCCO)c1cccc(OC)c1` [Embutramide]: the IC50 cell viability was greater than 45.8 µM (ICRF193 0 nM) and greater than 45.8 µM (ICRF193 200 nM).

For `Brc1c(NC2=NCCN2)ccc2nccnc12` [Brimonidine], the IC50 cell viability by setting is: (ICRF193 0 nM) greater than 45.8 µM; (ICRF193 200 nM) greater than 45.8 µM.

As to `Oc1ccc(Cl)cc1` [4-Chlorophenol], the IC50 cell viability runs as follows: (ICRF193 0 nM) greater than 45.8 µM; (ICRF193 200 nM) greater than 45.8 µM.

On to `CCCCCOc1ccc(-c2ccc(-c3ccc(C(=O)N[C@H]4C[C@@H](O)[C@@H](O)NC(=O)[C@@H]5[C@@H](O)[C@@H](C)CN5C(=O)[C@H]([C@@H](C)O)NC(=O)[C@H]([C@H](O)[C@@H](O)c5ccc(O)cc5)NC(=O)[C@@H]5C[C@@H](O)CN5C(=O)[C@H]([C@@H](C)O)NC4=O)cc3)cc2)cc1` [Anidulafungin], for which the IC50 cell viability is, setting by setting: (ICRF193 0 nM) greater than 45.8 µM; (ICRF193 200 nM) greater than 45.8 µM.

Regarding `CCC(=O)O[C@]1(C(=O)COC)[C@@H](C)C[C@H]2[C@@H]3CCC4=CC(=O)C=C[C@]4(C)[C@@]3(F)[C@@H](O)C[C@@]21C` [Amelometasone], the IC50 cell viability is, setting by setting: (ICRF193 0 nM) greater than 45.8 µM; (ICRF193 200 nM) greater than 45.8 µM.

For `CC1=C2[C@H]3OC(=O)[C@@H](C)[C@@H]3CC[C@@]2(C)C=CC1=O` [alpha-Santonin], the IC50 cell viability runs as follows: (ICRF193 0 nM) greater than 45.8 µM; (ICRF193 200 nM) greater than 45.8 µM.

`COc1cc(C)c(Cc2cnc(N)nc2N)cc1OC` [Ormetoprim]: the IC50 cell viability reads like this: (ICRF193 0 nM) greater than 45.8 µM; (ICRF193 200 nM) greater than 45.8 µM.

In the case of `CC/C=C\C/C=C\C/C=C\CCCCCCCC(=O)O` [Linolenic acid], the IC50 cell viability runs as follows: (ICRF193 0 nM) greater than 45.8 µM; (ICRF193 200 nM) greater than 45.8 µM.

As to `OCCOc1ccc(/C(=C(/CCCl)c2ccccc2)c2ccccc2)cc1` [Ospemifene], the IC50 cell viability (ICRF193 0 nM) was greater than 45.8 µM and the IC50 cell viability (ICRF193 200 nM) was greater than 45.8 µM.

For the compound `CCC(=O)O[C@]1(C(=O)CCl)[C@@H](C)C[C@H]2[C@@H]3CCC4=CC(=O)C=C[C@]4(C)[C@@]3(F)[C@@H](O)C[C@@]21C` [Clobetasol propionate], the IC50 cell viability runs as follows: (ICRF193 0 nM) greater than 45.8 µM; (ICRF193 200 nM) greater than 45.8 µM.

In the case of `CC(C(=O)O)c1ccc(-c2ccccc2)c(F)c1` (centres undefined) [Flurbiprofen], the IC50 cell viability reads like this: (ICRF193 0 nM) greater than 45.8 µM; (ICRF193 200 nM) greater than 45.8 µM.

Turning to `Cc1ncsc1CCCl` [Clomethiazole], the IC50 cell viability was greater than 45.8 µM (ICRF193 0 nM) and greater than 45.8 µM (ICRF193 200 nM).

Turning to `Cc1ccc(C(C)C)c(O)c1` [Thymol], the IC50 cell viability was greater than 45.8 µM (ICRF193 0 nM) and greater than 45.8 µM (ICRF193 200 nM).

As for `CCCc1cc(=O)[nH]c(=S)[nH]1` [Propylthiouracil], the IC50 cell viability runs as follows: (ICRF193 0 nM) greater than 45.8 µM; (ICRF193 200 nM) greater than 45.8 µM.

For `CC(=O)Nc1ccc(S(=O)(=O)Nc2cc(C)on2)cc1` [N-Acetyl sulfamethoxazole], the IC50 cell viability was greater than 45.8 µM (ICRF193 0 nM) and greater than 45.8 µM (ICRF193 200 nM).

As to `CCCc1nc(C(C)(C)O)c(C(=O)O)n1Cc1ccc(-c2ccccc2-c2nnn[nH]2)cc1` [Olmesartan], the IC50 cell viability is greater than 45.8 µM (ICRF193 0 nM) and greater than 45.8 µM (ICRF193 200 nM).

For the compound `N[C@@H](CSCC(=O)O)C(=O)O` [Carbocysteine], the IC50 cell viability was greater than 45.8 µM (ICRF193 0 nM) and greater than 45.8 µM (ICRF193 200 nM).

For `CC1=C(CC(=O)O)c2cc(F)ccc2/C1=C\c1ccc([S+](C)[O-])cc1` (centres undefined) [Sulindac], the IC50 cell viability is, setting by setting: (ICRF193 0 nM) greater than 45.8 µM; (ICRF193 200 nM) greater than 45.8 µM.

In turn, `NCCNC(=O)c1ccc(Cl)cn1` [Lazabemide hydrochloride] yielded an IC50 cell viability (ICRF193 0 nM) greater than 45.8 µM and an IC50 cell viability (ICRF193 200 nM) greater than 45.8 µM.

As for `N=C(N)NC(=O)c1nc(Cl)c(N)nc1N` [Amiloride], the IC50 cell viability by setting is: (ICRF193 0 nM) greater than 45.8 µM; (ICRF193 200 nM) greater than 45.8 µM.

As to `CCCc1nc(C(C)(C)O)c(C(=O)OCc2oc(=O)oc2C)n1Cc1ccc(-c2ccccc2-c2nnn[nH]2)cc1` [Olmesartan medoxomil], the IC50 cell viability by setting is: (ICRF193 0 nM) greater than 45.8 µM; (ICRF193 200 nM) greater than 45.8 µM.

On to `COc1ccc(CNCC(O)COc2ccc3[nH]c(=O)ccc3c2)cc1OC` (centres undefined) [Toborinone], for which the IC50 cell viability (ICRF193 0 nM) was greater than 45.8 µM and the IC50 cell viability (ICRF193 200 nM) is greater than 45.8 µM.

`CC(=O)OCC1=C(C(=O)O)N2C(=O)[C@@H](NC(=O)CSc3ccncc3)[C@H]2SC1` [Cephapirin sodium]: the IC50 cell viability was greater than 45.8 µM (ICRF193 0 nM) and greater than 45.8 µM (ICRF193 200 nM).

As for `Nc1ccc(S(=O)(=O)Nc2ccc(Cl)nn2)cc1` [Sulfachloropyridazine], the IC50 cell viability reads like this: (ICRF193 0 nM) greater than 45.8 µM; (ICRF193 200 nM) greater than 45.8 µM.

With `CCC(=O)O[C@@H]1CC(=O)O[C@H](C)C/C=C/C=C/[C@H](O)[C@H](C)C[C@H](CC=O)[C@H](O[C@@H]2O[C@H](C)[C@@H](O[C@H]3C[C@@](C)(O)[C@@H](OC(=O)CC)[C@H](C)O3)[C@H](N(C)C)[C@H]2O)[C@H]1OC` [Midecamycin], the IC50 cell viability is greater than 45.8 µM (ICRF193 0 nM) and greater than 45.8 µM (ICRF193 200 nM).

With `Cn1nnnc1SCC1=C(C(=O)O)N2C(=O)[C@@H](NC(=O)[C@H](OC=O)c3ccccc3)[C@H]2SC1` [Cefamandole (nafate)], the IC50 cell viability (ICRF193 0 nM) was greater than 45.8 µM and the IC50 cell viability (ICRF193 200 nM) was greater than 45.8 µM.

Take `CCCCCCCCCCCCCCCC(=O)O[C@@H]1CC(C)=C(/C=C/C(C)=C/C=C/C(C)=C/C=C/C=C(C)/C=C/C=C(C)/C=C/C2=C(C)C[C@@H](OC(=O)CCCCCCCCCCCCCCC)CC2(C)C)C(C)(C)C1` [Physalien]: the IC50 cell viability was greater than 45.8 µM (ICRF193 0 nM) and greater than 45.8 µM (ICRF193 200 nM).

Take `Cc1ncc(CSSCc2cnc(C)c(O)c2CO)c(CO)c1O` [Pyrithioxin dihydrochloride]: the IC50 cell viability runs as follows: (ICRF193 0 nM) greater than 45.8 µM; (ICRF193 200 nM) greater than 45.8 µM.

Regarding `Nc1ccn([C@@H]2O[C@H](CO)[C@@H](O)[C@H]2O)c(=O)n1` [CYTIDINE], the IC50 cell viability reads like this: (ICRF193 0 nM) greater than 45.8 µM; (ICRF193 200 nM) greater than 45.8 µM.

Take `O=C(O)C(O)C(O)C(=O)O` (stereo not drawn) [D(-)-Tartaric acid]: the IC50 cell viability is, setting by setting: (ICRF193 0 nM) greater than 45.8 µM; (ICRF193 200 nM) greater than 45.8 µM.

Take `CCCCOc1ccc(C[N+]2(C)[C@@H]3CC[C@H]2C[C@H](OC(=O)C(CO)c2ccccc2)C3)cc1` (some centres undefined) [Butropium Bromide]: the IC50 cell viability by setting is: (ICRF193 0 nM) greater than 45.8 µM; (ICRF193 200 nM) greater than 45.8 µM.

Take `Nc1ccn(C[C@@H](CO)OCP(=O)(O)O)c(=O)n1` [Cidofovir]: the IC50 cell viability runs as follows: (ICRF193 0 nM) greater than 45.8 µM; (ICRF193 200 nM) greater than 45.8 µM.

As for `O=C(O)P(=O)(O)O` [Foscarnet trisodium], the IC50 cell viability is, setting by setting: (ICRF193 0 nM) greater than 45.8 µM; (ICRF193 200 nM) greater than 45.8 µM.

For the compound `S=P(N1CC1)(N1CC1)N1CC1` [ThioTEPA], the IC50 cell viability reads like this: (ICRF193 0 nM) greater than 45.8 µM; (ICRF193 200 nM) greater than 45.8 µM.

In the case of `COc1cc(C)nc(-n2nc(C)cc2OC)n1` [Epirizole], the IC50 cell viability runs as follows: (ICRF193 0 nM) greater than 45.8 µM; (ICRF193 200 nM) greater than 45.8 µM.

For the compound `C[N+]1(C)[C@@H]2C[C@@H](OC(=O)[C@H](CO)c3ccccc3)C[C@H]1[C@@H]1O[C@@H]12` [Scopolamine methylbromide], the IC50 cell viability was greater than 45.8 µM (ICRF193 0 nM) and greater than 45.8 µM (ICRF193 200 nM).

For `CSc1ccc(C(=O)c2[nH]c(=O)[nH]c2C)cc1` [Enoximone], the IC50 cell viability is greater than 45.8 µM (ICRF193 0 nM) and greater than 45.8 µM (ICRF193 200 nM).

As to `Cc1cc(-c2ccc(/N=N/c3c(S(=O)(=O)O)cc4cc(S(=O)(=O)O)cc(N)c4c3O)c(C)c2)ccc1/N=N/c1c(S(=O)(=O)O)cc2cc(S(=O)(=O)O)cc(N)c2c1O` [TRYPAN BLUE], the IC50 cell viability reads like this: (ICRF193 0 nM) greater than 45.8 µM; (ICRF193 200 nM) greater than 45.8 µM.

With `CN1[C@@H]2CC[C@H]1C[C@@H](NC(=O)n1c(=O)[nH]c3ccccc31)C2` [Itasetron], the IC50 cell viability reads like this: (ICRF193 0 nM) greater than 45.8 µM; (ICRF193 200 nM) greater than 45.8 µM.

Consider `O=C(NNCS(=O)(=O)O)c1ccncc1` [Isoniazid sodium methanesulfonate], for which the IC50 cell viability by setting is: (ICRF193 0 nM) greater than 45.8 µM; (ICRF193 200 nM) greater than 45.8 µM.

Turning to `O=C(Cn1ccnc1[N+](=O)[O-])NCc1ccccc1` [Benznidazole], the IC50 cell viability by setting is: (ICRF193 0 nM) greater than 45.8 µM; (ICRF193 200 nM) greater than 45.8 µM.

As for `FCOC(C(F)(F)F)C(F)(F)F` [Sevoflurane], the IC50 cell viability is greater than 45.8 µM (ICRF193 0 nM) and greater than 45.8 µM (ICRF193 200 nM).

In the case of `O=C(O[C@@H]1C[C@@H]2C[C@H]3C[C@H](C1)N2CC3=O)c1c[nH]c2ccccc12` [Dolasetron mesylate hydrate], the IC50 cell viability runs as follows: (ICRF193 0 nM) greater than 45.8 µM; (ICRF193 200 nM) greater than 45.8 µM.

With `Cc1c(C)c2c(c(C)c1OC(=O)CCC(=O)O)CC[C@@](C)(CCC[C@H](C)CCC[C@H](C)CCCC(C)C)O2` [D-alpha-Tocopherol succinate], the IC50 cell viability by setting is: (ICRF193 0 nM) greater than 45.8 µM; (ICRF193 200 nM) greater than 45.8 µM.

`CCCCCCCC/C=C/CCCCCCCC(=O)O` [Elaidic Acid] gave an IC50 cell viability (ICRF193 0 nM) greater than 45.8 µM and an IC50 cell viability (ICRF193 200 nM) greater than 45.8 µM.

As to `OC(CCCN1CCCCC1)(c1ccccc1)c1ccccc1` [Diphenidol], the IC50 cell viability was greater than 45.8 µM (ICRF193 0 nM) and greater than 45.8 µM (ICRF193 200 nM).

As for `CN(C)CCn1nnnc1SCC1=C(C(=O)O)N2C(=O)[C@@H](NC(=O)Cc3csc(N)n3)[C@H]2SC1` [Cefotiam hydrochloride], the IC50 cell viability is greater than 45.8 µM (ICRF193 0 nM) and greater than 45.8 µM (ICRF193 200 nM).

For `CC(C)(C)c1nnc(NS(=O)(=O)c2ccccc2)s1` [Glybuzole], the IC50 cell viability is, setting by setting: (ICRF193 0 nM) greater than 45.8 µM; (ICRF193 200 nM) greater than 45.8 µM.

For `NC(=O)CC[C@@H](N)C(=O)O` [D-Glutamine], the IC50 cell viability was greater than 45.8 µM (ICRF193 0 nM) and greater than 45.8 µM (ICRF193 200 nM).

As for `CCOC(=O)/C=C(C)/C=C/C=C(C)/C=C/c1c(C)cc(OC)c(C)c1C` [Etretinate], the IC50 cell viability by setting is: (ICRF193 0 nM) greater than 45.8 µM; (ICRF193 200 nM) greater than 45.8 µM.

The values are drawn from the supplement of paper PMC12137928.
